Results taken from ChEMBL document CHEMBL2203210, “SAR and in vivo evaluation of 4-aryl-2-aminoalkylpyrimidines as potent and selective Janus kinase 2 (JAK2) inhibitors” (Bioorg Med Chem Lett, 2012).
Converted amounts (≈) assume the structure as drawn.

What was measured:
[1] = molecular target: T1, Tyrosine-protein kinase JAK2 (Homo sapiens, UniProt O60674)
Description: Inhibition of JAK2 in HEL 92.1.7 cells assessed as inhibition of STAT1 phosphorylation

[2] = molecular target: T1, Tyrosine-protein kinase JAK2; remark: listed apart in the source
[3] = molecular target: T2, Tyrosine-protein kinase JAK3 (Homo sapiens, UniProt P52333)
T2 sequence (P52333 whole entry): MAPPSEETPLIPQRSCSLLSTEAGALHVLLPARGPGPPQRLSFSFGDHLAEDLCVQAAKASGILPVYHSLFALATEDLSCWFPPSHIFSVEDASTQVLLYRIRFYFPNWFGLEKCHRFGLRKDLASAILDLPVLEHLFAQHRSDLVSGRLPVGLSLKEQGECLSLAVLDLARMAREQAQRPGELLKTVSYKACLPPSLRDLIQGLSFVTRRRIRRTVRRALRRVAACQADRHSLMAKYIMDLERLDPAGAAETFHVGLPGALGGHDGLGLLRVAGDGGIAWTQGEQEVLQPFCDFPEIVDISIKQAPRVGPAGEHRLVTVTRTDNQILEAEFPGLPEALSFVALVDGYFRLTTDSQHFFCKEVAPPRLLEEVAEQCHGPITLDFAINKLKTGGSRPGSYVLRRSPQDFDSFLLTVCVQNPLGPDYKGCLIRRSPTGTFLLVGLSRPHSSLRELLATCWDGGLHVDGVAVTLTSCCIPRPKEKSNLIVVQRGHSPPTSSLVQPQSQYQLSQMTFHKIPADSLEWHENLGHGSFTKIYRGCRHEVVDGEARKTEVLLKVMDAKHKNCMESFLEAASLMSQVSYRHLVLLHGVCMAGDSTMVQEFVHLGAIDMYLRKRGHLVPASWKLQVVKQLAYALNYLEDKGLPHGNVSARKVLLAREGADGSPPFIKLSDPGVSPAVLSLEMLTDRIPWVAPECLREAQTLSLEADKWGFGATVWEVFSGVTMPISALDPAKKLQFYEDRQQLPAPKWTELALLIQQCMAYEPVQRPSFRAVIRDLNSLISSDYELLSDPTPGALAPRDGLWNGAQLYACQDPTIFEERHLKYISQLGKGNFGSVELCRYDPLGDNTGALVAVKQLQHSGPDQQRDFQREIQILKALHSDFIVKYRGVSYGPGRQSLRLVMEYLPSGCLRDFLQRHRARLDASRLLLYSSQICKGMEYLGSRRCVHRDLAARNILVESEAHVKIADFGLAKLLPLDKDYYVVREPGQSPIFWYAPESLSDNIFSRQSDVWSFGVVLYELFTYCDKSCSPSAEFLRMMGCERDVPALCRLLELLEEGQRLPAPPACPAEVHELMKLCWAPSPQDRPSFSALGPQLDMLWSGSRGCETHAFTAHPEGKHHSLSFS

[4] = molecular target: T1, Tyrosine-protein kinase JAK2; remark: listed apart in the source
Description: Inhibition of JAK2 in HEL 92.1.7 cells assessed as inhibition of STAT3 phosphorylation

[5] = Selectivity ratio of IC50 for JAK3 to IC50 for JAK2
[6] = Kinetic solubility of the compound; assay type: physicochemical; details: read-out: Kinetic_solubility

T1 sequence (O60674 whole entry): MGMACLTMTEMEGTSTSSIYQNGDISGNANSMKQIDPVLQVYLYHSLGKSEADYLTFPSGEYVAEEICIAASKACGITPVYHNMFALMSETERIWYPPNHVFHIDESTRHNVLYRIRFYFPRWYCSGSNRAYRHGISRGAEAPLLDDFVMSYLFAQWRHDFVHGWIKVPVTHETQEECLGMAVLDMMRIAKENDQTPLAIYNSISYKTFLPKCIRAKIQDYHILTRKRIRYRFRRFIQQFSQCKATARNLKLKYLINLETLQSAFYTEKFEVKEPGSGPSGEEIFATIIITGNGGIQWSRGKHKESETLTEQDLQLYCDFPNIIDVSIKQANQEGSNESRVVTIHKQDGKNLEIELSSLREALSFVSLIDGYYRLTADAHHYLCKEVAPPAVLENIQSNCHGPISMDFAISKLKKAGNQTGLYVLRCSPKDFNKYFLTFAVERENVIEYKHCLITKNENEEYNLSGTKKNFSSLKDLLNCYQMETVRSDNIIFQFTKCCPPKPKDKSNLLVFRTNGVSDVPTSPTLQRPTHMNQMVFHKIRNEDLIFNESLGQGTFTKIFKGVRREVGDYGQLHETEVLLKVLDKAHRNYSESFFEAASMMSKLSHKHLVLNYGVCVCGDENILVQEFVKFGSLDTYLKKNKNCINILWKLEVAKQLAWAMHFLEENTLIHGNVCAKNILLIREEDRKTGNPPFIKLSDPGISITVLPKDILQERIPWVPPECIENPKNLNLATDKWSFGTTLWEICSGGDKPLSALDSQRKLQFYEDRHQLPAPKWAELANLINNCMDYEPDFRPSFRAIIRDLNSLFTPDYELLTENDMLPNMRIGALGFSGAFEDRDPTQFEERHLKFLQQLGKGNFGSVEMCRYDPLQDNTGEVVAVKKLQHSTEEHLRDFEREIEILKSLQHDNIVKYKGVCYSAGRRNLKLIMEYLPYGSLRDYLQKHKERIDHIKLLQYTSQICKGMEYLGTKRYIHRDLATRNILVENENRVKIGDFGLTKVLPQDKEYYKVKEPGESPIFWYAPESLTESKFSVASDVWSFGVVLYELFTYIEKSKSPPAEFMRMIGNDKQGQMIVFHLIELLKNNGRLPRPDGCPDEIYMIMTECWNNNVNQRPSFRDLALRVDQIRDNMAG

SMILES | IC50 [1] [µM] | IC50 [2] [µM] | IC50 [3] [µM] | IC50 [4] [µM] | Ratio IC50 [5] | solubility kinetic [6] [µM]
CC(=O)Nc1ccc(-c2ccnc(Nc3cccc(NC(=O)c4c(Cl)cccc4Cl)n3)n2)cc1 | > 30 | 0.13 | > 0.98 | – | – | –
CC(=O)Nc1ccc(-c2ccnc(NC3CCCC(NC(=O)c4c(Cl)cccc4Cl)C3)n2)cc1 (configuration not stated) | > 30 | > 0.98 | > 0.98 | – | – | –
CN1CCC[C@@H]1C(=O)Nc1ccc(-c2ccnc(Nc3ccc(N4CCOCC4)cc3)n2)cc1 | 0.746 | 0.0052 | 0.484 | 1.05 | – | –
CC(=O)Nc1ccc(-c2ccnc(Nc3ccc(N4CCOCC4)cc3)n2)cc1 | 0.975 | – | > 0.98 | 0.795 | > 250 | –
CC(=O)Nc1ccc(-c2ccnc(Nc3cccc(NC(=O)c4ccccc4)c3)n2)cc1 | – | – | > 0.98 | – | – | –
C[C@H](N)C(=O)Nc1ccc(-c2ccnc(Nc3ccc(N4CCOCC4)cc3)n2)cc1 | 1.05 | 0.0087 | 0.298 | 1.51 | – | –
CC(=O)Nc1ccc(-c2ccnc(Nc3cccc(N4CCOCC4)c3)n2)cc1 | 0.615 | 0.0042 | > 0.98 | 0.591 | – | –
CC(=O)Nc1ccc(-c2nc(Nc3ccc(N4CCOCC4)cc3)ncc2F)cc1 | 6.49 | 0.0044 | > 0.98 | – | – | –
CC(=O)Nc1ccc(-c2nc(Nc3ccc(N4CCOCC4)cc3)ncc2C)cc1 | – | – | 0.105 | – | – | –
CC(=O)Nc1ccc(-c2ccnc(Nc3cccc(NC(=O)c4c(Cl)cccc4Cl)c3)n2)cc1 | 0.763 | 0.0126 | > 0.98 | 0.505 | – | –
CC(=O)Nc1ccc(-c2cc(Nc3ccc(N4CCOCC4)cc3)ncn2)cc1 | > 30 | > 0.98 | > 0.98 | – | – | –
O=C1CC[C@H](C(=O)Nc2ccc(-c3ccnc(Nc4ccc(N5CCOCC5)cc4)n3)cc2)N1 | > 30 | 0.0009 | 0.0617 | – | – | –
CC(=O)Nc1ccc(-c2ccnc(NCCCNC(=O)c3c(Cl)cccc3Cl)n2)cc1 | 8.14 | 0.104 | > 5 | – | > 50 | 6.5 (≈ 2.98 µg/mL)
O=C(Nc1ccc(-c2ccnc(Nc3ccc(N4CCOCC4)cc3)n2)cc1)[C@H]1CCNC1 | > 30 | 0.0057 | 0.368 | – | – | –
CC(=O)Nc1ccc(-c2nc(Nc3ccc(N4CCOCC4)cc3)ncc2C(F)(F)F)cc1 | 2.7 | 0.0396 | > 0.98 | – | – | –
CC(=O)Nc1ccc(-c2ccnc(Nc3cccc(NC(=O)c4ccccc4Cl)c3)n2)cc1 | > 30 | 0.0069 | > 0.98 | – | – | –
N[C@H](CO)C(=O)Nc1ccc(-c2ccnc(Nc3ccc(N4CCOCC4)cc3)n2)cc1 | 0.622 | 0.0027 | 0.16 | 1.39 | – | –
C[C@@H](N)C(=O)Nc1ccc(-c2ccnc(Nc3ccc(N4CCOCC4)cc3)n2)cc1 | 0.328 | 0.0017 | 0.307 | 0.452 | – | –
CC(=O)Nc1ccc(-c2cc(C)nc(Nc3ccc(N4CCOCC4)cc3)n2)cc1 | > 30 | > 0.98 | > 0.98 | – | – | –
CC(=O)Nc1ccc(-c2ccnc(Nc3cccc(N4CCCCC4)c3)n2)cc1 | 0.956 | 0.0065 | > 0.98 | 1.33 | – | –
CC(=O)Nc1ccc(-c2ccnc(Nc3ccccc3)n2)cc1 | 1 | 0.0128 | 1.15 | 1.97 | – | 234 (≈ 71.2 µg/mL)
CCN1CCC[C@@H]1C(=O)Nc1ccc(-c2ccnc(Nc3ccc(N4CCOCC4)cc3)n2)cc1 | 1.43 | 0.0091 | – | 2.17 | – | –
CC(=O)Nc1ccc(-c2ccnc(NCC3CN(C(=O)c4c(Cl)cccc4Cl)C3)n2)cc1 | > 30 | 5 | 5 | – | – | –
